This is an account of results in patent US11986471B2, “Compounds and methods of use” (Tango Therapeutics, Inc., priority 2018, dated 2024).

A word on the IC50: it is the concentration needed to halve the response being measured.

SMILES strings stand for the structures.

Assay type in all cases: biochemical
Test [1] has as its target T1, PRMT5 (Homo sapiens, UniProt O14744).
T1 construct: purchased Viva (custom protein)
The test is described as follows: PRMT5 IC50 assay in the presence of SAM as cofactor. An excerpt:
(§1) Table 1a indicates IC50 values (μM) against PRMT5 for exemplary compounds in the presence of SAM as cofactor, with no cofactor and with MTA as cofactor, respectively (columns 3-5). […] The Ki values can be calculated from the IC50 values as described in the Examples section. As detailed in the Examples section, for the assay performed in the presence of SAM, IC50=Ki×1.5 (Ki=IC50/1.5). For the assay performed in the presence of MTA, IC50=Ki×13.5 (Ki=IC50/13.5). Column 6 indicates the ratio between the Ki of compounds in the presence of SAM and the Ki of compounds in the presence of MTA

Test [2] addresses T1, PRMT5. Description: PRMT5 IC50 assay in the presence of MTA as cofactor. The following applies: for IC50: PRMT5, MTA as cofactor.
Source text: as §1

In test [3] the target is T1, PRMT5. The test is described as follows: PRMT5 IC50 assay with no cofactor.
Source text: as §1

The mark [4] stands for this setting: ratio between the Ki in the presence of SAM and the Ki in the presence of MTA.
The mark [5] stands for this setting: ratio between Ki in the presence of SAM and Ki in the presence of MTA.

T1 sequence (O14744 whole entry): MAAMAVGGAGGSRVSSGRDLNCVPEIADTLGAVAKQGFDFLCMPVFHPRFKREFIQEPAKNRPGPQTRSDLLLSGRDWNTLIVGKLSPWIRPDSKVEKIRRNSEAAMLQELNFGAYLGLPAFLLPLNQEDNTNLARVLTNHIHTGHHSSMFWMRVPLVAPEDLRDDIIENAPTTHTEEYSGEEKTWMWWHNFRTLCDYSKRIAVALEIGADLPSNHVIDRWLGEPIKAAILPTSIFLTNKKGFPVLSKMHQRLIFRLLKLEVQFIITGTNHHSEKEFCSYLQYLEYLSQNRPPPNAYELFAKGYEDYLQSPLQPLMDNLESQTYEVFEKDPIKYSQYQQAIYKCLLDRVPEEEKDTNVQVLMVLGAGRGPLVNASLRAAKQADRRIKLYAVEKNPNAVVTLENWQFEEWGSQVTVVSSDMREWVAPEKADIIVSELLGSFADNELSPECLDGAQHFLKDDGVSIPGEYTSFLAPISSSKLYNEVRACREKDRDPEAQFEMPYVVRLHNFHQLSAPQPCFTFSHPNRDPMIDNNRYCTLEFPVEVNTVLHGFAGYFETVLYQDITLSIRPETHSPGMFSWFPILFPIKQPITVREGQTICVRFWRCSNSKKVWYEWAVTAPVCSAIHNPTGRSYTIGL
T1 sequence (Q9BQA1 whole entry partner): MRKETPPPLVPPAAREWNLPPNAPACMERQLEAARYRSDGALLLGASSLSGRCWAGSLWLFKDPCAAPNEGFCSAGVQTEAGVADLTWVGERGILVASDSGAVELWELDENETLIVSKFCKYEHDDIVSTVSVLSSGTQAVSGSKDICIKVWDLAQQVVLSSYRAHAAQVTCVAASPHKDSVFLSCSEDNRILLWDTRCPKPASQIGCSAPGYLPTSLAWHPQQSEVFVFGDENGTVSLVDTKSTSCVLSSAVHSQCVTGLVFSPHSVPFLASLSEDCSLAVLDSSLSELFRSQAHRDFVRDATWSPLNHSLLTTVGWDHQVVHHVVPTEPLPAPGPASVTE

For the compound `Cc1ncoc1COc1ccc2c(c1)[C@@H](O)CN(C[C@@H](O)CNC(=O)c1ccnc(NC3CCC3)c1)C2` (single isomer, unassigned) [Compound 505], the IC50 is 500 to 5000 nM in test [1], 500 to 5000 nM in test [2] and not below 5000 nM in test [3]. The “SAM/MTA Ratio” value in test [2] (setting [4]) is “A (a Ki ratio greater than or equal to 10 fold between the Ki in the presence of SAM and the Ki in the presence of MTA)”.

As for `COCCN(C)c1cc(NC2CCN(C(C)=O)CC2)cc(C(=O)NC[C@@H](O)CN2CCc3cc(OCc4ocnc4C)ccc3C2)c1` (single isomer, unassigned) [Compound 648], the IC50 in test [1] was 50 to 500 nM; in test [2], 50 to 500 nM; in test [3] (read-out: No Co-factor IC50), not below 5000 nM. The “SAM/MTA Ratio” value in test [2] (setting [5]) was “A (a Ki ratio greater than or equal to 10 fold between the Ki in the presence of SAM and the Ki in the presence of MTA)”.

Turning to `COCCN(C)c1cc(NC2CCN(C(C)=O)CC2)cc(C(=O)NC[C@H](O)CN2CCc3cc(OCc4ocnc4C)ccc3C2)c1` (single isomer, unassigned) [Compound 649], the 50% inhibitory concentration (IC50) was 500 to 5000 nM in test [1], 500 to 5000 nM in test [2] and not below 5000 nM in test [3] (read-out: No Co-factor IC50). Besides, in test [2] (setting [5]), the “SAM/MTA Ratio” value is “A (a Ki ratio greater than or equal to 10 fold between the Ki in the presence of SAM and the Ki in the presence of MTA)”.

Take `Cc1c(OCc2ccnn2C)ccc2c1CCN(C[C@@H](O)CNC(=O)c1ccnc(NC3CCC3)c1)C2` [Compound 161, 2-(cyclobutylamino)-N-[(2S)-2-hydroxy-3-[5-methyl-6-[(2-methylpyrazol-3-yl)methoxy]-3,4-dihydro-1H-isoquinolin-2-yl]propyl]pyridine-4-carboxamide]: the IC50 is 500 to 5000 nM in test [1], 500 to 5000 nM in test [2] and not below 5000 nM in test [3] (read-out: No Co-factor IC50). In addition, in test [2] (setting [5]), the “SAM/MTA Ratio” value was “A (a Ki ratio greater than or equal to 10 fold between the Ki in the presence of SAM and the Ki in the presence of MTA)”.

For the compound `O=C1N[C@H]2[C@H](CS[C@H]2CCCCC(=O)N2CCC(Nc3cc(C(=O)NC[C@H](O)CN4CCc5cc(OCc6cnco6)ccc5C4)ncn3)CC2)N1` [Compound 265], the IC50 in test [1] is 50 to 500 nM; in test [2], less than 50 nM; in test [3] (read-out: No Co-factor IC50), 500 to 5000 nM. The “SAM/MTA Ratio” value in test [2] (setting [5]) was “A (a Ki ratio greater than or equal to 10 fold between the Ki in the presence of SAM and the Ki in the presence of MTA)”.

In the case of `O=C(NC[C@H](O)CN1CCc2c(ccc(OCc3cnn[nH]3)c2Cl)C1)c1ccnc(NC2CCC2)c1` [Compound 269, N-[(2S)-3-[5-chloro-6-(1H-triazol-5-ylmethoxy)-3,4-dihydro-1H-isoquinolin-2-yl]-2-hydroxy-propyl]-2-(cyclobutylamino)pyridine-4-carboxamide], the IC50 was 500 to 5000 nM in test [1], 500 to 5000 nM in test [2] and not below 5000 nM in test [3] (read-out: No Co-factor IC50). Also, the “SAM/MTA Ratio” value in test [2] (setting [5]) is “A (a Ki ratio greater than or equal to 10 fold between the Ki in the presence of SAM and the Ki in the presence of MTA)”.

As for `CC(=O)N1CCC(Nc2cc(C(=O)NC[C@H](O)CN3CCc4c(ccc(OCc5cnnn5C)c4C)C3)ncn2)CC1` [Compound 276, (S)-6-((1-acetylpiperidin-4-yl)amino)-N-(2-hydroxy-3-[5-methyl-6-((1-methyl-1H-1,2,3-triazol-5-yl)methoxy)-3N-dihydroisoquinolin-2(1H)-yl)propyl)pyrimidine-4-carboxamide], the results for the IC50 in test [1], in test [2] and in test [3] (read-out: No Co-factor IC50) were 500 to 5000 nM, 500 to 5000 nM and not below 5000 nM, respectively. Also, in test [2] (setting [5]), the “SAM/MTA Ratio” value is “A (a Ki ratio greater than or equal to 10 fold between the Ki in the presence of SAM and the Ki in the presence of MTA)”.

For `O[C@@H](CNc1nccc(-c2sccc2Br)n1)CN1CCc2cc(OCc3cnco3)ccc2C1` [Compound 331, (S)-1-((4-(3-bromothiophen-2-yl)pyrimidin-2-yl)amino)-3-(6-(oxazol-5-ylmethoxy)-3,4-dihydroisoquinolin-2(1H)-yl)propan-2-ol], the IC50 in test [1], in test [2] and in test [3] (read-out: No Co-factor IC50) was 500 to 5000 nM each time. Besides, the “SAM/MTA Ratio” value in test [2] (setting [5]) was “A (a Ki ratio greater than or equal to 10 fold between the Ki in the presence of SAM and the Ki in the presence of MTA)”.

For the compound `Cc1c(OCc2cnco2)cc(F)c2c1CCN(C[C@H](O)CNC(=O)c1ccnc(NC3CCC3)c1)C2` [Compound 332, 2-(cyclobutylamino)-N-[(2R)-3-[8-fluoro-5-methyl-6-(oxazol-5-ylmethoxy)-3,4-dihydro-1H-isoquinolin-2-yl]-2-hydroxy-propyl]pyridine-4-carboxamide], the IC50 in test [1] is 500 to 5000 nM; in test [2], 500 to 5000 nM; in test [3] (read-out: No Co-factor IC50), not below 5000 nM. Also, in test [2] (setting [5]), the “SAM/MTA Ratio” value is “A (a Ki ratio greater than or equal to 10 fold between the Ki in the presence of SAM and the Ki in the presence of MTA)”.

Regarding `CC1(CCC(=O)N2CCC(Nc3cc(C(=O)NC[C@H](O)CN4CCc5cc(OCc6cnco6)ccc5C4)ncn3)CC2)N=N1` [Compound 363, N-[(2S)-2-hydroxy-3-[6-(oxazol-5-ylmethoxy)-3N-dihydro-1H-isoquinolin-2-yl]propyl]-6-[[1-[3-(3-methyldiazirine-3-yl)propanoyl]-4-piperidyl]amino]pyrimidine-4-carboxamide], the IC50 lay within 50 to 500 nM in test [1], 50 to 500 nM in test [2] and 500 to 5000 nM in test [3] (read-out: No Co-factor IC50). Besides, the “SAM/MTA Ratio” value in test [2] (setting [5]) is “A (a Ki ratio greater than or equal to 10 fold between the Ki in the presence of SAM and the Ki in the presence of MTA)”.

With `O=C(NC[C@H](O)CN1CCc2c(ccc(OCc3cnco3)c2Br)C1)c1cc(NC2CCCCC2)ncn1` [Compound 377, (S)—N-(3-(5-bromo-6-(oxazol-5-ylmethoxy)-3A-dihydroisoquinolin-2(1H)-yl)-2-hydroxypropyl)-6-(cyclohexylamino)pyrimidine-4-carboxamide], the IC50 in test [1] was 500 to 5000 nM; in test [2] it was 500 to 5000 nM; in test [3] (read-out: No Co-factor IC50) it was not below 5000 nM. In test [2] (setting [5]), the “SAM/MTA Ratio” value is “A (a Ki ratio greater than or equal to 10 fold between the Ki in the presence of SAM and the Ki in the presence of MTA)”.

Turning to `CCCN(C)c1cc(C(=O)NC[C@H](O)CN2CCc3c(ccc(OCc4cnco4)c3Cl)C2)cc(NC2CCC2)n1` [Compound 453, (S)—N-(3-(5-chloro-6-(oxazol-5-ylmethoxy)-3N-dihydroisoquinolin-2(1H)-yl)-2-hydroxypropyl)-2-(cyclobutylamino)-6-(methyl(propyl)amino)isonicotinamide], the IC50 is 500 to 5000 nM in test [1], 500 to 5000 nM in test [2] and not below 5000 nM in test [3]. Further, the “SAM/MTA Ratio” value in test [2] (setting [4]) was “A (a Ki ratio greater than or equal to 10 fold between the Ki in the presence of SAM and the Ki in the presence of MTA)”.

Take `O=C(NC[C@H](O)CN1CCc2c(ccc(OCc3cnco3)c2Cl)C1)c1cc(NC2CCC2)ncn1` [Compound 508, (S)—N-(3-(5-chloro-6-(oxazol-5-ylmethoxy)-3,4-dihydroisoquinolin-2(1H)-yl)-2-hydroxypropyl)-6-(cyclobutylamino)pyrimidine-4-carboxamide]: the IC50 is 500 to 5000 nM in test [1], 50 to 500 nM in test [2] and not below 5000 nM in test [3]. Besides, the “SAM/MTA Ratio” value in test [2] (setting [4]) is “A (a Ki ratio greater than or equal to 10 fold between the Ki in the presence of SAM and the Ki in the presence of MTA)”.

In the case of `Cc1c(OCc2cnco2)ccc2c1CCN(C[C@@H](O)CNC(=O)c1cncc(NC3CCOC3)c1)C2` (stereo partly shown) [Compound 510], the concentration for half-maximal inhibition (IC50) in test [1] is 500 to 5000 nM; in test [2] it was 50 to 500 nM; in test [3], not below 5000 nM. In test [2] (setting [4]), the “SAM/MTA Ratio” value was “A (a Ki ratio greater than or equal to 10 fold between the Ki in the presence of SAM and the Ki in the presence of MTA)”.

Regarding `O=C(NC[C@H](O)CN1CCc2cc(OCc3cnco3)ccc2C1)c1cc(NC2CCOCC2)ccn1` [Compound 511, (S)—N-(2-hydroxy-3-(6-(oxazol-5-ylmethoxy)-3,4-dihydroisoquinolin-2(1H)-yl)propyl)-4-((tetrahydro-2H-pyran-4-yl)amino)picolinamide], the IC50 was 500 to 5000 nM in test [1], 500 to 5000 nM in test [2] and not below 5000 nM in test [3]. In addition, in test [2] (setting [4]), the “SAM/MTA Ratio” value was “A (a Ki ratio greater than or equal to 10 fold between the Ki in the presence of SAM and the Ki in the presence of MTA)”.

On to `Cc1c(OCc2cnco2)ccc2c1CCN(C[C@@H](O)CNC(=O)c1ccnc(NC34CC(C3)C4)c1)C2` [Compound 514, (S)-2-(bicyclo[1.1.1]pentan-1-ylamino)-N-(2-hydroxy-3-(5-methyl-6-(oxazol-5-ylmethoxy)-3N-dihydroisoquinolin-2(1H)-yl)propyl)isonicotinamide], for which the half-maximal inhibitory concentration (IC50) in test [1] is 500 to 5000 nM; in test [2] it was 500 to 5000 nM; in test [3], not below 5000 nM. Besides, the “SAM/MTA Ratio” value in test [2] (setting [4]) is “A (a Ki ratio greater than or equal to 10 fold between the Ki in the presence of SAM and the Ki in the presence of MTA)”.

The compound `CC(=O)N1CC(Nc2cc(C(=O)NCC(O)CN3CCc4cc(OCc5ocnc5C)ccc4C3)nc(N3CCCCC3)c2)C1` (stereo not shown) [Compound 580] returned a half-maximal inhibitory concentration (IC50) in test [3] of 500 to 5000 nM.

As for `CC(=O)N1CCC(Nc2cc(C(=O)NCC(O)CN3CCc4nc(OCc5ocnc5C)ccc4C3)cc(N3CCCCC3)n2)CC1` (stereo not shown) [Compound 654], the IC50 in test [2] was in the range of 50 to 500 nM; in test [3] (read-out: No Co-factor IC50), 500 to 5000 nM.
